Reference: US10538554B2, “Peptides and uses therefor as antiviral agents” (priority 2015, dated 2020)
Like-named read-outs stand apart in the source and are kept apart here. Bridge positions count the residues as written; N and C are the ends. Square brackets hold non-standard residues; d marks the D form. Peptide text beside a SMILES is read from it.

Assays:
H3N8 A/Miami/2/63 = conditions: A/Miami/2/63, 48 h
H9N2 A/Iran/16/2000 = conditions: 48 h
[1] = system: H1N1 A1/Malaysia/302/1954; conditions: A1/Malaysia/302/1954, 48 h
H3N2 A/HK/8/1968 = conditions: A/HK/8/1968, 48 h, 50 μM
H1N1 A/NY/18/2009 = conditions: A/NY/18/2009, 48 h, 10 μM

SMILES	% inhibition H3N8 (H3N8 A/Miami/2/63; 50 μM) [%]	% inhibition H9N2 (H9N2 A/Iran/16/2000; 50 μM) [%]	% inhibition H1N1 ([1]; 50 μM) [%]	% inhibition H3N2 (H3N2 A/HK/8/1968) [%]	% inhibition H3N8 (H3N8 A/Miami/2/63; 500 μM) [%]	% inhibition H3N8 (H3N8 A/Miami/2/63; 10 μM) [%]	% inhibition H9N2 (H9N2 A/Iran/16/2000; 10 μM) [%]	% inhibition H1N1 ([1]; 10 μM) [%]	% Inhibition Pdm 2009 (H1N1 A/NY/18/2009) [%]
CC[C@@H](C)[C@H]1NC(=O)[C@@H](Cc2ccccc2)NC(=O)[C@@H](CCCNC(=N)N)NC(=O)[C@@H](CCCCN)NC(=O)[C@@H](Cc2c[nH]c3ccccc23)NC(=O)[C@@H]([C@H](C)O)NC(=O)[C@H](NC(=O)[C@H](CCCCN)NC(=O)[C@H](CCCCN)NC(=O)[C@H](CCCNC(=N)N)NC(=O)[C@@H](N)CCCNC(=N)N)CSSC[C@H](C(=O)O)NC(=O)[C@@H](CC(N)=O)NC1=O [PSP III B9, H-RRKKctwkrfinc-OH] (H-RRKK[dC][dT][dW][dK][dR][dF][dI][dN][dC]-OH; disulfide 5-13)	96	90	90	96					
CC[C@@H](C)[C@H]1NC(=O)[C@@H](Cc2ccccc2)NC(=O)[C@@H](CCCNC(=N)N)NC(=O)[C@@H](CC(C)C)NC(=O)[C@@H](Cc2c[nH]c3ccccc23)NC(=O)[C@@H]([C@H](C)O)NC(=O)[C@H](NC(=O)[C@H](CCCCN)NC(=O)[C@H](CCCCN)NC(=O)[C@H](CCCNC(=N)N)NC(=O)[C@@H](N)CCCNC(=N)N)CSSC[C@H](C(=O)O)NC(=O)[C@@H](CC(N)=O)NC1=O [PSP III B10, H-RRKKctwlrfinc-OH] (H-RRKK[dC][dT][dW][dL][dR][dF][dI][dN][dC]-OH; disulfide 5-13)	96	90	92	100					
CC[C@@H](C)[C@H]1NC(=O)[C@@H](Cc2ccccc2)NC(=O)[C@@H](CCCNC(=N)N)NC(=O)[C@@H](CCSC)NC(=O)[C@@H](Cc2c[nH]c3ccccc23)NC(=O)[C@@H]([C@H](C)O)NC(=O)[C@H](NC(=O)[C@H](CCCCN)NC(=O)[C@H](CCCCN)NC(=O)[C@H](CCCNC(=N)N)NC(=O)[C@@H](N)CCCNC(=N)N)CSSC[C@H](C(=O)O)NC(=O)[C@@H](CC(N)=O)NC1=O [PSP III B11, H-RRKKctwmrfinc-OH] (H-RRKK[dC][dT][dW][dM][dR][dF][dI][dN][dC]-OH; disulfide 5-13)	96	93	94	100					
CC[C@@H](C)[C@H]1NC(=O)[C@@H](Cc2ccccc2)NC(=O)[C@@H](CCCNC(=N)N)NC(=O)[C@@H](CC(N)=O)NC(=O)[C@@H](Cc2c[nH]c3ccccc23)NC(=O)[C@@H]([C@H](C)O)NC(=O)[C@H](NC(=O)[C@H](CCCCN)NC(=O)[C@H](CCCCN)NC(=O)[C@H](CCCNC(=N)N)NC(=O)[C@@H](N)CCCNC(=N)N)CSSC[C@H](C(=O)O)NC(=O)[C@@H](CC(N)=O)NC1=O [PSP III B12, H-RRKKctwnrfinc-OH] (H-RRKK[dC][dT][dW][dN][dR][dF][dI][dN][dC]-OH; disulfide 5-13)	87	83	75	100					
CC[C@@H](C)[C@H]1NC(=O)[C@@H](Cc2ccccc2)NC(=O)[C@@H](CCCNC(=N)N)NC(=O)[C@H]2CCCN2C(=O)[C@@H](Cc2c[nH]c3ccccc23)NC(=O)[C@@H]([C@H](C)O)NC(=O)[C@H](NC(=O)[C@H](CCCCN)NC(=O)[C@H](CCCCN)NC(=O)[C@H](CCCNC(=N)N)NC(=O)[C@@H](N)CCCNC(=N)N)CSSC[C@H](C(=O)O)NC(=O)[C@@H](CC(N)=O)NC1=O [PSP III B13, H-RRKKctwprfinc-OH] (H-RRKK[dC][dT][dW][dP][dR][dF][dI][dN][dC]-OH; disulfide 5-13)	83	79	63	96					
CC[C@@H](C)[C@H]1NC(=O)[C@@H](Cc2ccccc2)NC(=O)[C@@H](CCCNC(=N)N)NC(=O)[C@@H](CCC(N)=O)NC(=O)[C@@H](Cc2c[nH]c3ccccc23)NC(=O)[C@@H]([C@H](C)O)NC(=O)[C@H](NC(=O)[C@H](CCCCN)NC(=O)[C@H](CCCCN)NC(=O)[C@H](CCCNC(=N)N)NC(=O)[C@@H](N)CCCNC(=N)N)CSSC[C@H](C(=O)O)NC(=O)[C@@H](CC(N)=O)NC1=O [PSP III B14, H-RRKKctwqrfinc-OH] (H-RRKK[dC][dT][dW][dQ][dR][dF][dI][dN][dC]-OH; disulfide 5-13)	87	86	83	96					
CC[C@@H](C)[C@H]1NC(=O)[C@@H](Cc2ccccc2)NC(=O)[C@@H](CCCNC(=N)N)NC(=O)[C@@H](CCCNC(=N)N)NC(=O)[C@@H](Cc2c[nH]c3ccccc23)NC(=O)[C@@H]([C@H](C)O)NC(=O)[C@H](NC(=O)[C@H](CCCCN)NC(=O)[C@H](CCCCN)NC(=O)[C@H](CCCNC(=N)N)NC(=O)[C@@H](N)CCCNC(=N)N)CSSC[C@H](C(=O)O)NC(=O)[C@@H](CC(N)=O)NC1=O [PSP III B15, H-RRKKctwrrfinc-OH] (H-RRKK[dC][dT][dW][dR][dR][dF][dI][dN][dC]-OH; disulfide 5-13)	91	84	83	100					
CC[C@@H](C)[C@H]1NC(=O)[C@@H](Cc2ccccc2)NC(=O)[C@@H](CCCNC(=N)N)NC(=O)[C@@H](CO)NC(=O)[C@@H](Cc2c[nH]c3ccccc23)NC(=O)[C@@H]([C@H](C)O)NC(=O)[C@H](NC(=O)[C@H](CCCCN)NC(=O)[C@H](CCCCN)NC(=O)[C@H](CCCNC(=N)N)NC(=O)[C@@H](N)CCCNC(=N)N)CSSC[C@H](C(=O)O)NC(=O)[C@@H](CC(N)=O)NC1=O [PSP III B16, H-RRKKctwsrfinc-OH] (H-RRKK[dC][dT][dW][dS][dR][dF][dI][dN][dC]-OH; disulfide 5-13)	96	88	88	96	100				
CC[C@@H](C)[C@H]1NC(=O)[C@@H](Cc2ccccc2)NC(=O)[C@@H](CCCNC(=N)N)NC(=O)[C@@H]([C@H](C)O)NC(=O)[C@@H](Cc2c[nH]c3ccccc23)NC(=O)[C@@H]([C@H](C)O)NC(=O)[C@H](NC(=O)[C@H](CCCCN)NC(=O)[C@H](CCCCN)NC(=O)[C@H](CCCNC(=N)N)NC(=O)[C@@H](N)CCCNC(=N)N)CSSC[C@H](C(=O)O)NC(=O)[C@@H](CC(N)=O)NC1=O [PSP III B17, H-RRKKctwtrfinc-OH] (H-RRKK[dC][dT][dW][dT][dR][dF][dI][dN][dC]-OH; disulfide 5-13)	96	86	79	96					
CC[C@@H](C)[C@H]1NC(=O)[C@@H](Cc2ccccc2)NC(=O)[C@@H](CCCNC(=N)N)NC(=O)[C@@H](C(C)C)NC(=O)[C@@H](Cc2c[nH]c3ccccc23)NC(=O)[C@@H]([C@H](C)O)NC(=O)[C@H](NC(=O)[C@H](CCCCN)NC(=O)[C@H](CCCCN)NC(=O)[C@H](CCCNC(=N)N)NC(=O)[C@@H](N)CCCNC(=N)N)CSSC[C@H](C(=O)O)NC(=O)[C@@H](CC(N)=O)NC1=O [PSP III B18, H-RRKKctwvrfinc-OH] (H-RRKK[dC][dT][dW][dV][dR][dF][dI][dN][dC]-OH; disulfide 5-13)	100	88	90	100					
CC[C@@H](C)[C@H]1NC(=O)[C@@H](Cc2ccccc2)NC(=O)[C@@H](CCCNC(=N)N)NC(=O)[C@@H](Cc2c[nH]c3ccccc23)NC(=O)[C@@H](Cc2c[nH]c3ccccc23)NC(=O)[C@@H]([C@H](C)O)NC(=O)[C@H](NC(=O)[C@H](CCCCN)NC(=O)[C@H](CCCCN)NC(=O)[C@H](CCCNC(=N)N)NC(=O)[C@@H](N)CCCNC(=N)N)CSSC[C@H](C(=O)O)NC(=O)[C@@H](CC(N)=O)NC1=O [PSP III B19, H-RRKKctwwrfinc-OH] (H-RRKK[dC][dT][dW][dW][dR][dF][dI][dN][dC]-OH; disulfide 5-13)	100	97	94	100					
CC[C@@H](C)[C@H]1NC(=O)[C@@H](Cc2ccccc2)NC(=O)[C@@H](CCCNC(=N)N)NC(=O)[C@@H](Cc2ccc(O)cc2)NC(=O)[C@@H](Cc2c[nH]c3ccccc23)NC(=O)[C@@H]([C@H](C)O)NC(=O)[C@H](NC(=O)[C@H](CCCCN)NC(=O)[C@H](CCCCN)NC(=O)[C@H](CCCNC(=N)N)NC(=O)[C@@H](N)CCCNC(=N)N)CSSC[C@H](C(=O)O)NC(=O)[C@@H](CC(N)=O)NC1=O [PSP III B20, H-RRKKctwyrfinc-OH] (H-RRKK[dC][dT][dW][dY][dR][dF][dI][dN][dC]-OH; disulfide 5-13)	96	86	83	100					
CC[C@@H](C)[C@H]1NC(=O)[C@@H](Cc2ccccc2)NC(=O)[C@@H](C)NC(=O)[C@@H](Cc2ccccc2)NC(=O)[C@@H](Cc2c[nH]c3ccccc23)NC(=O)[C@@H]([C@H](C)O)NC(=O)[C@H](NC(=O)[C@H](CCCCN)NC(=O)[C@H](CCCCN)NC(=O)[C@H](CCCNC(=N)N)NC(=O)[C@@H](N)CCCNC(=N)N)CSSC[C@H](C(=O)O)NC(=O)[C@@H](CC(N)=O)NC1=O [PSP IV A1, H-RRKKctwfafinc-OH] (H-RRKK[dC][dT][dW][dF][dA][dF][dI][dN][dC]-OH; disulfide 5-13)						83	77	78	78
